“And” between values parts separate entries of the source, which are not always exact repeats. Identical values can stand only once.
Assay: Rat PK study #1 (Compound A PO, methylcellulose vs propylene glycol formulation)
Format: in vivo, Lewis rats
Method: For the first rat pharmacokinetic study, the pharmacokinetics of Compound A were assessed in male Lewis rats. Compound A was prepared in two different formulations (1% methylcellulose and 20% propylene glycol/20% Vitamin E/60% water) according to Table 3A (see Tables 2A and 2D for formulations). The formulations were made fresh prior to use. Animals were divided into two groups based on the compound formulation (n=3/group). The Compound A solutions were administered to animals orally (PO) and animals were then monitored over a 24 h period.
Blood samples (~0.2 mL) were collected according to a schedule (0.083, 0.25, 0.5, 1, 2, 4, 8, and 24 h following the initial dosing) via the jugular vein by cannulation and EDTA-K2 was used as anticoagulant. Within 30 minutes of collection, the samples were centrifuged at approximately 4000 times g-force for 5 minutes at 4° C. to obtain blood plasma. The plasma samples were immediately divided into two aliquots (~75 μL each), transferred to a cryogenic vial, and stored in a freezer at −75±15° C. prior to analysis.
The concentration of Compound A in plasma samples was determined by liquid chromatography-mass spectrometry (LC-MS/MS) using a Shimadzu HPLC (DGU-20A5R; LC-30AD; SIL-30AC; Rack changer II; CTO-31A; and CBM-20A) and an AB API 5500 LC/MS/MS instrument. Samples were analyzed on an Agilent Poroshell 120 EC-C18 4 μm (50×2.1 mm) column. Solution A in the mobile phase was 95% water (0.1% formic acid) and solution B was 95% acetonitrile in water (0.1% formic acid), injection volume was 3 μL, and flow rate was 0.6 mL/min.
To prepare samples for analysis, serial concentrations were prepared by diluting the stock solution of analyte with a 50% acetonitrile in water solution. 5 μL working solutions (5, 10, 20, 50, 100, 500, 1000, 5000, and 10000 ng/ml) were added to 50 μL of the blank Lewis rat plasma to achieve calibration standards of ~0.5 to 1000 ng/ml (0.5, 1, 2, 5, 10, 50, 100, 500, and 1000 ng/ml) in a total volume of 55 μL. Five quality control samples at 1 ng/ml, 2 ng/ml, 5 ng/mL, 50 ng/mL, and 800 ng/mL for plasma were prepared independently of those used for the calibration curves. These QC samples were prepared on the day of analysis in the same way as calibration standards.
55 μL of standards, 55 μL of QC samples and 55 μL of unknown samples (50 μL of unknown rat plasma with 5 μL of blank solution) were added to 200 μL of acetonitrile containing internal standard (IS; verapamil) mixture for precipitating protein respectively. The samples were then vortexed for 30 s. After centrifugation at 4° C., 3900 rpm for 15 min, the supernatant was diluted 3 times with water. 3 μL of diluted supernatant was injected into the LC/MS/MS system for quantitative analysis.

[1] = Lewis rats, PO 10 mg/kg, 1% methylcellulose formulation, individual animals, 10 mg/kg
[2] = Lewis rats, PO 10 mg/kg, 1% methylcellulose formulation, mean of 3 animals
[3] = Lewis rats, PO 10 mg/kg, propylene glycol/Vitamin E TPGS/water formulation, individual animals, 10 mg/kg
[4] = Lewis rats, PO 10 mg/kg, propylene glycol/Vitamin E TPGS/water formulation, mean of 3 animals

Cn1cc(-c2ccccc2)c(-c2cn(C)c(=O)c3[nH]c(-c4cnn(C(F)(F)F)c4)cc23)cc1=O [Compound A, 6-methyl-4-(1-methyl-2-oxo-5-phenyl-1,2-dihydropyridin-4-yl)-2-(1-(trifluoromethyl)-1H-pyrazol-4-yl)-1,6-dihydro-7H-pyrrolo[2,3-c]pyridin-7-one]
Plasma Concentration (Lewis rats, PO 10 mg/kg, 1% methylcellulose formulation, 0.083 h, individual animals): 0.00 ng/mL | Plasma Concentration (Lewis rats, PO 10 mg/kg, 1% methylcellulose formulation, 0.083 h, mean of 3 animals): BLOQ | Plasma Concentration (Lewis rats, PO 10 mg/kg, 1% methylcellulose formulation, 0.25 h, individual animals, 10 mg/kg): 1.37 ng/mL and 0.868 ng/mL and 0.603 ng/mL | Plasma Concentration (Lewis rats, PO 10 mg/kg, 1% methylcellulose formulation, 0.5 h, individual animals, 10 mg/kg): 9.07 ng/mL and 4.15 ng/mL and 2.89 ng/mL | Plasma Concentration (Lewis rats, PO 10 mg/kg, 1% methylcellulose formulation, 1 h, individual animals, 10 mg/kg): 10.7 ng/mL and 12.2 ng/mL | Plasma Concentration (Lewis rats, PO 10 mg/kg, 1% methylcellulose formulation, 2 h, individual animals, 10 mg/kg): 21.6 ng/mL and 22.7 ng/mL | Plasma Concentration (Lewis rats, PO 10 mg/kg, 1% methylcellulose formulation, 4 h, individual animals, 10 mg/kg): 49.2 ng/mL and 43.1 ng/mL | Plasma Concentration (Lewis rats, PO 10 mg/kg, 1% methylcellulose formulation, 8 h, individual animals, 10 mg/kg): 29.3 ng/mL and 67.3 ng/mL and 50.6 ng/mL | Plasma Concentration (Lewis rats, PO 10 mg/kg, 1% methylcellulose formulation, 24 h, individual animals, 10 mg/kg): 0.996 ng/mL and 1.52 ng/mL and 5.80 ng/mL | AUClast [1]: 875 ng·h/mL and 726 ng·h/mL | AUClast/D [1]: 48.0 mg·h/mL and 87.5 mg·h/mL and 72.6 mg·h/mL | Cmax [1]: 67.3 ng/mL and 50.6 ng/mL | F [1]: 2.51% and 4.57% and 3.79% | AUClast/D [2]: 69.4 mg·h/mL | F [2]: 3.62% | Plasma Concentration (Lewis rats, PO 10 mg/kg, propylene glycol/Vitamin E TPGS/water formulation, 0.083 h, individual animals, 10 mg/kg): 3.72 ng/mL and 4.36 ng/mL | Plasma Concentration (Lewis rats, PO 10 mg/kg, propylene glycol/Vitamin E TPGS/water formulation, 0.25 h, individual animals, 10 mg/kg): 39.8 ng/mL and 47.2 ng/mL | Plasma Concentration (Lewis rats, PO 10 mg/kg, propylene glycol/Vitamin E TPGS/water formulation, 0.5 h, individual animals, 10 mg/kg): 134 ng/mL | Plasma Concentration (Lewis rats, PO 10 mg/kg, propylene glycol/Vitamin E TPGS/water formulation, 1 h, individual animals, 10 mg/kg): 264 ng/mL and 263 ng/mL | Plasma Concentration (Lewis rats, PO 10 mg/kg, propylene glycol/Vitamin E TPGS/water formulation, 2 h, individual animals, 10 mg/kg): 375 ng/mL and 424 ng/mL | Plasma Concentration (Lewis rats, PO 10 mg/kg, propylene glycol/Vitamin E TPGS/water formulation, 4 h, individual animals, 10 mg/kg): 316 ng/mL and 437 ng/mL | Plasma Concentration (Lewis rats, PO 10 mg/kg, propylene glycol/Vitamin E TPGS/water formulation, 8 h, individual animals, 10 mg/kg): 156 ng/mL and 145 ng/mL | Plasma Concentration (Lewis rats, PO 10 mg/kg, propylene glycol/Vitamin E TPGS/water formulation, 24 h, individual animals, 10 mg/kg): 12.6 ng/mL and 12.5 ng/mL | AUC_%Extrap_obs (Lewis rats, PO 10 mg/kg, propylene glycol/Vitamin E TPGS/water formulation, individual animals): 2.25% | AUClast [3]: 3428 ng·h/mL and 3755 ng·h/mL | Cmax [3]: 375 ng/mL and 437 ng/mL | F [3]: 25.8% and 17.1% and 19.6% | AUClast/D [4]: 404 | F [4]: 20.8% | Clinical observations (both formulations, PO, 24 h): no recorded clinical observations | plasma concentration, propylene glycol-based vs methylcellulose-based formulation (male Lewis rats, PO, same dose): approximately 10 fold | concentration at 0.083 h (male, Lewis, rat, plasma, po, 10 mg/kg, Lewis rats, PO 10 mg/kg, 1% methylcellulose formulation, 0.083 h, individual animals): 0 ng/mL | concentration at 0.25 h (male, Lewis, rat, plasma, po, 10 mg/kg, Lewis rats, PO 10 mg/kg, 1% methylcellulose formulation, 0.25 h, mean of 3 animals): 0.95 ng/mL | concentration at 0.5 h (male, Lewis, rat, plasma, po, 10 mg/kg, Lewis rats, PO 10 mg/kg, 1% methylcellulose formulation, 0.5 h, mean of 3 animals): 5.37 ng/mL | concentration at 1 h (male, Lewis, rat, plasma, po, 10 mg/kg, Lewis rats, PO 10 mg/kg, 1% methylcellulose formulation, 1 h, individual animals): 17.1 ng/mL | concentration at 1 h (male, Lewis, rat, plasma, po, 10 mg/kg, Lewis rats, PO 10 mg/kg, 1% methylcellulose formulation, 1 h, mean of 3 animals): 13.3 ng/mL | concentration at 2 h (male, Lewis, rat, plasma, po, 10 mg/kg, Lewis rats, PO 10 mg/kg, 1% methylcellulose formulation, 2 h, individual animals): 25.5 ng/mL
